Patent publication US9475783B2, “Antimicrobial agents” (Rutgers, the State University of New Jersey, priority 2012, dated 2016)
Values after ≈ are worked out from the molar mass of the structure shown.

Assays:
[1] = format: in vivo; details: formulated in 20% DMA, 40% proplyeneglycol in 8% Cremophor-EL; apparent embolitic effect from drug precipitation
Procedure: The literature vehicle reported for formulation of 5-chloro-2-(2,4-difluoro-3-aminocarbonylphenoxy)methylpyridylthiazole for i.v. administration consists of 20% DMA, 40% polyethylene glycol and 40% saline. […] Mice that were treated 15 minutes later with a second injection consisting of 150 μl of this vehicle died. In addition, concentrations of 5-chloro-2-(2,4-difluoro-3-aminocarbonylphenoxy)methylpyridylthiazole at or above 2.2 mg/ml in this vehicle were not completely dissolved and existed as a suspension (in a 28 g mouse this would be 15.7 mg/kg). A number of other formulations with 5-chloro-2-(2,4-difluoro-3-aminocarbonylphenoxy)methyl benzothiazole were tried, such as 20% DMA, 40% proplyeneglycol in 8% Cremophor-EL. […] Because of the limited solubility and the absence of a suitable vehicle, the literature study where it was reported that a 30 mg/kg dose of 5-chloro-2-(2,4-difluoro-3-aminocarbonylphenoxy)methylpyridylthiazole was delivered to mice in a single injection could not be repeated. […] In some instances the addition of 10-30% propylene glycocol did allow for greater retention of solubility of the test compounds. Example 4 was also found to formulate well at a 2.0 mg/ml concentration in 10 mM malic acid with 20% propylene glycol and with 10 mM p-toluenesulphonate alone. Example 6 did formulate well in 10 mM citrate alone at a concentration of 2.0 mg/ml. […]

[2] = test system: Bacillus subtilis FG347 bacteria; test: Test C FtsZ Z-ring assay (GFP-ZapA fluorescence microscopy); format: cell-based; details: compound at 3 μg/mL
Procedure: Test C. FtsZ Z-Ring Assay.
The impact of a compound on FtsZ Z-ring formation can be determined using a strain of Bacillus subtilis (FG347) that expresses a green fluorescent protein (GFP)-ZapA fusion protein upon induction with xylose. ZapA is known to associate with FtsZ Z-rings in B. subtilis and, thus, serves as a marker for Z-ring formation. In this assay, log-phase FG347 bacteria are treated with differing concentrations of compound for time periods ranging from 1 to 6 hours. At each time point, aliquots are taken from each culture and then viewed with a fluorescence microscope.
Examples 4 and 6-8 were evaluated for their impact on the polymerization of Staphylococcus aureus FtsZ. […] In addition, Example 5 and 7 were also examined for their impact on FtsZ Z-ring formation in Bacillus subtilis FG347 bacteria. […] These collective results highlight the compounds of the invention as FtsZ-targeting antibacterial agents.

MSSA = test: Test A antibacterial assay, broth microdilution MIC; format: cell-based; details: Staphylococcus aureus, growth read after 24 to 48 hours at OD 600 nm
Procedure: Test A. Antibacterial Assay. Antibacterial activity can be determined as per Clinical and Laboratory Standards Institute (CLSI) guidelines using a broth microdilution assay in which log-phase bacteria are grown at 37° C. in appropriate medium containing two-fold serial dilutions of a compound to yield final concentrations ranging from 256 to 0.06 μg/mL. For determination of minimal inhibitory concentration (MIC) values, bacterial growth is monitored after 24 to 48 hours by measuring optical density at 600 nm.

| Structure (SMILES) | outcome of mice treated with the formulation [1] | bacterial morphology induced [2] | impact on FtsZ Z-ring formation [2] | MIC (MSSA) |
| --- | --- | --- | --- | --- |
| NC(=O)c1c(F)ccc(OCc2nc3cc(Cl)ccc3s2)c1F [5-chloro-2-(2,4-difluoro-3-aminocarbonylphenoxy)methyl benzothiazole] | died within a few minutes |  |  |  |
| CN(C)/C=N/C(=O)c1c(F)ccc(OCc2nc3cc(Cl)cnc3s2)c1F [Example 5] |  | elongated, filamentous morphology | inhibit FtsZ Z-ring formation | 0.25 µg/mL (≈ 0.609 µM) |
